Laboratory results from patent US7470715B2, “Estrogen modulators” (Pfizer Inc., priority 2005, dated 2008).

Assays:
[1] = target: T1, ligand binding domain of the estrogen receptor alpha chain (ERαLBD) (Homo sapiens, UniProt P03372); experiment: ER agonist cell assay (ERα), Huh-7 co-transfection, luciferase; type: cell-based; conditions: for ERα % of Max E2 Response: percent of the maximum estradiol fold change, Huh-7, pG5luc and ERαLBD; for EC50: Huh-7 cells co-transfected with pG5luc and ERαLBD, overnight incubation, luciferase
T1 construct: expressed in transfected cells; host or cells: Huh-7 human hepatoma cells, transient transfection with FuGENE 6
T1 sequence (P03372 311-547 limits assumed): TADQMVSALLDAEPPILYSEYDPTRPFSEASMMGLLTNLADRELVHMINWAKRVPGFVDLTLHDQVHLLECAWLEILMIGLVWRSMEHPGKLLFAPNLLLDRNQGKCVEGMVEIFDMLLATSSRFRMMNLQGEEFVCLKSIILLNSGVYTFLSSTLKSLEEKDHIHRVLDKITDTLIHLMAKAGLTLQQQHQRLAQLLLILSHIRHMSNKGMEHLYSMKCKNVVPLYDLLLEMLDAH
Experimental: (§1) The compounds ability to mimic the effects of estrogen on the estrogen receptor were determined in a whole cell assay as described immediately below.
(§2) Experimental Procedure for ER Agonist Cell Assay
(§3) • Cell line and plasmids: The human hepatoma cell line Huh-7 was used for co-transfections. Cells were maintained in culture medium and split when they reached 80-90% confluency. Three plasmids were routinely used in the assay. pG5luc contained the firefly luciferase gene and was obtained from Promega. […] Cell Culture Media and Reagents:
(§4) Culture medium: DMEM (phenol red free), 10% charcoal treated HyClone serum, 1% L-glutamine, and 1% penicillin/streptomycin
(§5) Transfection medium: DMEM (phenol red free) and 10% charcoal treated HyClone serum
(§6) Luciferase reagents: Dual-Glo Luciferase Kit (Promega cat #E2980) was used for determination of luciferase activity.
(§7) Transient transfections were preformed using the lipophilic reagent FuGENE 6 (Roche). Cells were split and seeded at 7.2×10^6/150 cm^2 flask in 20 mL of transfection medium. 5-6 hrs later cells were co-transfected with either pG5luc and ERαLBD or pG5luc and ERβLBD(pm418). Transfected cells grew overnight and were then used the next day.
(§8) Cells transfected 24 hrs earlier were harvested, counted, and seeded in wells containing compound at a density of 1×10^4 cells/well. […] Cells were incubated overnight at 37° C. and 5% CO2 in the presence of compound. The following day medium was aspirated from the wells and 100 ul of Dual-Glo™ Luciferase Reagent were added to each well. Plates were incubated at room temperature for 20 minutes and firefly luminescence was measured on a luminometer. Next, 50 ul of Dual-Gbo™ Stop & Glo® Reagent were added to each well and after 20 minutes at room temperature the Renilla luminescence was measured on a luminometer. Values from each well were normalized by dividing the firefly luminescence by the Renilla luminescence. Estradiol was used as the standard and run in each assay. The fold induction over background for each compound was compared to the maximum fold induction for estradiol in each assay. […] Those compounds that were not tested, or the data was unavailable are marked as NT.

[2] = target: ligand binding domain of the estrogen receptor beta chain (ERβLBD) that contained a point mutation at amino acid residue 418 (pm418) (Homo sapiens, UniProt Q92731); experiment: ER agonist cell assay (ERβ), Huh-7 co-transfection, luciferase; type: cell-based; conditions: for ERβ % of Max E2 Response: percent of the maximum estradiol fold change, Huh-7, pG5luc and ERβLBD(pm418); for EC50: Huh-7 cells co-transfected with pG5luc and ERβLBD(pm418), overnight incubation, luciferase
Experimental: as §1, §2, §3, §4, §5, §6, §7, §8

Row | SMILES | ERα % of Max E2 Response [1] [%] | ERβ % of Max E2 Response [2] [%] | EC50 [1] [nM] | EC50 [2] [nM]
1 | Oc1ccc(-c2noc(C3(CNc4cccc(C(F)(F)F)c4)CC3)c2-c2ccccc2)cc1 [Example 29, 4-(4-Phenyl-5-{1-[(3-trifluoromethyl-phenylamino)-methyl]-cyclopropyl}-isoxazol-3-yl)-phenol] | 11.4 | 0.601 |  | 
2 | O=C(OCc1ccccc1)C1(c2onc(-c3ccc(O)cc3)c2-c2ccccc2)CC1 [Example 92, 1-[3-(4-Hydroxy-phenyl)-4-phenyl-isoxazol-5-yl]-cyclopropanecarboxylic acid benzyl ester] | 19.7 | >1.04 | 57.2 | > 10000
3 | COCC1(c2onc(-c3ccc(O)cc3)c2-c2ccccc2)CC1 [Example 8, 4-[5-(1-Methoxymethyl-cyclopropyl)-4-phenyl-isoxazol-3-yl]-phenol] | 40.4 | 3.65 | 25.8 | 68.8
4 | CNCC1(c2onc(-c3ccc(O)cc3)c2-c2ccccc2)CC1 [Example 103, 4-[5-(1-methylaminomethyl-cyclopropyl)-4-phenyl-isoxazol-3-yl]-phenol] | 10.2 | 1.21 |  | 
5 | CC(=O)SCC1(c2onc(-c3ccc(O)cc3)c2-c2ccccc2)CC1 [Example 37, Thioacetic acid S-{1-[3-(4-hydroxy-phenyl)-4-phenyl-isoxazol-5-yl]-cyclopropylmethyl} ester] | 30.7 | 4.3 | 202 | 302
6 | CC(C)CC(=O)OCC1(c2onc(-c3ccc(O)cc3)c2-c2ccccc2)CC1 [Example 55] | 55.8 | 32.6 | 5.7 | 23.6
7 | CCCCOC(=O)C1(c2onc(-c3ccc(O)cc3)c2-c2ccccc2)CC1 [Example 94, 1-[3-(4-Hydroxy-phenyl)-4-phenyl-isoxazol-5-yl]-cyclopropanecarboxylic acid butyl ester] | 24.3 | >0.800 | 29.3 | > 10000
8 | Oc1ccc(-c2noc(C3(c4nnc(-c5cccc(O)c5)o4)CC3)c2-c2ccccc2)cc1 [Example 125, 3-(5-{1-[3-(4-hydroxyphenyl)-4-phenylisoxazol-5-yl]cyclopropyl}-1,3,4-oxadiazol-2-yl)phenol] | 22.1 | >0.535 | 419 | > 10000
9 | Oc1ccc(-c2noc(C3(c4nnc(-c5ccc(O)cc5O)o4)CC3)c2-c2ccccc2)cc1 [Example 118, 4-(5-{1-[3-(4-hydroxyphenyl)-4-phenylisoxazol-5-yl]cyclopropyl}-1,3,4-oxadiazol-2-yl)benzene-1,3-diol] | 15 | >0.789 | 25.1 | > 10000
10 | Oc1ccc(-c2noc(C3(COCC(F)(F)F)CC3)c2-c2ccccc2)cc1 [Example 11, 4-{4-Phenyl-5-[1-(2,2,2-trifluoro-ethoxymethyl)-cyclopropyl]-isoxazol-3-yl}-phenol] | 23.4 | 1.98 | 171 | 14.7
11 | CC(C)OCC1(c2onc(-c3ccc(O)cc3)c2-c2ccccc2)CC1 [Example 3, 4-[5-(1-Isopropoxymethyl-cyclopropyl)-4-phenyl-isoxazol-3-yl]-phenol] | 32.2 | 1.32 | 97.1 | 568
12 | COc1cccc(-c2nnc(C3(c4onc(-c5ccc(O)cc5)c4-c4ccccc4)CC3)o2)c1 [Example 123, 4-(5-{1-[5-(3-methoxyphenyl)-1,3,4-oxadiazol-2-yl]cyclopropyl}-4-phenylisoxazol-3-yl)phenol] | 35.9 | >0.658 | 46.9 | > 10000
13 | CCOC(=O)C1(c2onc(-c3ccc(O)c(F)c3)c2-c2ccccc2)CC1 [Example 97, 1-[3-(3-Fluoro-4-hydroxy-phenyl)-4-phenyl-isoxazol-5-yl]-cyclopropanecarboxylic acid ethyl ester] | 19.7 | 1.08 |  | 
14 | CC(C)C(C)NCC1(c2onc(-c3ccc(O)cc3)c2-c2ccccc2)CC1 (racemic) [Example 24, (±)-4-(5-{1-[(1,2-Dimethyl-propylamino)-methyl]-cyclopropyl}-4-phenyl-isoxazol-3-yl)-phenol] | 30.9 | >0.860 | 12.6 | > 10000
15 | COCCOC(=O)C1(c2onc(-c3ccc(O)cc3)c2-c2ccccc2)CC1 [Example 88, 1-[3-(4-Hydroxy-phenyl)-4-phenyl-isoxazol-5-yl]-cyclopropanecarboxylic acid 2-methoxy-ethyl ester] | 29.2 | >3.41 | 29.4 | > 10000
16 | Oc1ccc(-c2noc(C3(c4nnc(-c5ccccc5O)o4)CC3)c2-c2ccccc2)cc1 [Example 122, 2-(5-{1-[3-(4-hydroxyphenyl)-4-phenylisoxazol-5-yl]cyclopropyl}-1,3,4-oxadiazol-2-yl)phenol] | 21.9 | >0.756 | 71.5 | > 10000
17 | O=C(OC1CCCC1)C1(c2onc(-c3ccc(O)cc3)c2-c2ccccc2)CC1 [Example 89, 1-[3-(4-Hydroxy-phenyl)-4-phenyl-isoxazol-5-yl]-cyclopropanecarboxylic acid cyclopentyl ester] | 26 | >2.93 | 30.5 | > 10000
18 | Oc1ccc(-c2noc(C3(C(O)C4CC4)CC3)c2-c2ccccc2)cc1 (racemic) [Example 14, (±)-4-{5-[1-(Cyclopropyl-hydroxy-methyl)-cyclopropyl]-4-phenyl-isoxazol-3-yl}-phenol] | 45.4 | 17.7 | 43 | 136
19 | CC[C@@H](NCC1(c2onc(-c3ccc(O)cc3)c2-c2ccccc2)CC1)c1ccccc1 [Example 26, 4-[4-Phenyl-5-(1-{[(1R)-1-phenyl-propylamino]-methyl}-cyclopropyl)-isoxazol-3-yl]-phenol] | 20.9 | 1.03 | 66 | 
20 | CCCC(=O)OCC1(c2onc(-c3ccc(O)cc3)c2-c2ccccc2)CC1 [Example 58] | 59.9 | 92 | 137 | 97.9
21 | OCC1(c2onc(-c3ccc(O)c(F)c3)c2-c2ccccc2)CC1 [Example 98, 2-Fluoro-4-[5-(1-hydroxymethyl-cyclopropyl)-4-phenyl-isoxazol-3-yl]-phenol] | 46 | 36.8 | 985 | 799
22 | Oc1ccc(-c2noc(C3(C(O)c4ccccc4)CC3)c2-c2ccccc2)cc1 (racemic) [Example 16, (±)-4-{5-[1-(Hydroxy-phenyl-methyl)-cyclopropyl]-4-phenyl-isoxazol-3-yl}-phenol] | 63.2 | 2.37 | 44.3 | 
23 | COc1cccc(F)c1OCC1(c2onc(-c3ccc(O)cc3)c2-c2ccccc2)CC1 [Example 7, 4-{5-[1-(2-Fluoro-6-methoxy-phenoxymethyl)-cyclopropyl]-4-phenyl-isoxazol-3-yl}-phenol] | 17.2 | >0.485 | 208 | > 10000
24 | COc1ncccc1OCC1(c2onc(-c3ccc(O)cc3)c2-c2ccccc2)CC1 [Example 13, 4-{5-[1-(2-Methoxy-pyridin-3-yloxymethyl)-cyclopropyl]-4-phenyl-isoxazol-3-yl}-phenol] | 19 | 0.552 |  | 
